Article PMC6600542 (Molecules, 2019)
“And” between values parts separate entries of the source, which are not always exact repeats. Equal values may be shown once.

Assays:
normal human plasma = test: TT clotting assay, normal human plasma; format: biochemical; details: for concentration to double the TT: normal human plasma (text)
human α-thrombin = biological target: T1, human α-thrombin (Homo sapiens, UniProt P00734); test: Thrombin chromogenic substrate hydrolysis assay; format: biochemical
T1 construct: purchased Haematologic Technologies, Inc
Procedure: (§1) Direct inhibition of human FXa and α-thrombin of the common coagulation pathway and human plasmin of the fibrinolysis pathway were measured using the corresponding chromogenic substrate hydrolysis assays at 37 °C and pH 7.4, as reported earlier using the 96-microplate platform. […] After 10 min incubation, 5 µL Spectrozyme FXa (5 mM stock conc.) was rapidly added and the residual activity of FXa was measured from the initial rate of increase in absorbance at 405 nm. […] The concentration vs effect curve was constructed using logistic Equation (1) from which the potency (IC50) and efficacy (ΔY) of inhibition were also obtained.
For thrombin and plasmin, the assays were performed using substrates appropriate for each enzyme (Spectrozyme TH for thrombin and Spectrozyme PL for plasmin) under conditions closest to the physiological condition. The KM of the substrate for its enzyme was used to identify the concentration of the substrate to be used for inhibition studies. […] After 10 min incubation, 5 µL Spectrozyme TH (1.0 mM stock conc.) was rapidly added and the residual activity of thrombin was measured from the initial rate of increase in absorbance at 405 nm. […] After 10 min incubation, 5 µL Spectrozyme PL (1.0 mM stock conc.) was rapidly added and the residual activity of plasmin was measured from the initial rate of increase in absorbance at 405 nm. […]

human plasmin [1] = biological target: T2, human plasmin (Homo sapiens, UniProt P00747); test: Plasmin chromogenic substrate hydrolysis assay; format: biochemical; details: Spectrozyme PL, pH 7.4, 37 °C
Procedure: as §1
For thrombin and plasmin, the assays were performed using substrates appropriate for each enzyme (Spectrozyme TH for thrombin and Spectrozyme PL for plasmin) under conditions closest to the physiological condition. The KM of the substrate for its enzyme was used to identify the concentration of the substrate to be used for inhibition studies. […] After 10 min incubation, 5 µL Spectrozyme TH (1.0 mM stock conc.) was rapidly added and the residual activity of thrombin was measured from the initial rate of increase in absorbance at 405 nm. […] After 10 min incubation, 5 µL Spectrozyme PL (1.0 mM stock conc.) was rapidly added and the residual activity of plasmin was measured from the initial rate of increase in absorbance at 405 nm. […] Buffer for assays was 20–50 mM Tris-HCl buffer, pH 7.4, containing 100–150 mM NaCl, 2.5 mM CaCl2, 0.1% PEG8000, and 0.02% Tween80. All assays were performed three times.

[2] = biological target: T3, human neutrophil elastase (Homo sapiens, UniProt P08246); test: Neutrophil elastase chromogenic substrate hydrolysis assay; format: biochemical; details: pH 7.4
T3 construct: purchased Elastin Products Company
T3 sequence (P08246 30-247 limits assumed): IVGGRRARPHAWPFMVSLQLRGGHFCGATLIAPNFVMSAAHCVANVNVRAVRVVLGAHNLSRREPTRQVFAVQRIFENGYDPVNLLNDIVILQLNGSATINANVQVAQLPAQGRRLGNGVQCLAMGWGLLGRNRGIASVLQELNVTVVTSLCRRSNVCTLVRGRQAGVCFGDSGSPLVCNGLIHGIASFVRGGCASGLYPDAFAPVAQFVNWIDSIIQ
Procedure: (§2) Direct inhibition of the human coagulation transglutaminase FXIIIa was also studied using a fluorescence-based transglutamination assay as reported in the literature.
(§3) After 10 min incubation, 5 µL FXIa substrate (6.9 mM stock concentration) was rapidly added and the residual FXIa activity was measured from the initial rate of increase in absorbance at 405 nm. Assays were performed in similar fashion with trypsin and chymotrypsin. Stock concentrations used were 18.9 µg/mL (trypsin) and 22.7 mM (S-2222) for bovine trypsin assay (final volume was 200 µL) and 2 µg/mL (chymotrypsin) and 16.2 mM (N-Succinyl-Ala-Ala-Pro-Phe-p-nitroanilide) for bovine chymotrypsin assay (final volume was 200 µL). The buffer used for FXIa, trypsin, chymotrypsin assays was 50 mM Tris-HCl buffer, pH 7.4, containing 150 mM NaCl, 2.5 mM CaCl2, 0.1% PEG8000, and 0.02% Tween80. Neutrophil elastase inhibition assay was performed in a 96-well plate with a final volume of 100 µl with 0.125 M 4-(2-hydroxyethyl)-1-piperazineethanesulfonic acid (HEPES) buffer, pH 7.4 containing 0.125% Triton-X 100, as reported earlier. […] After incubation, 3 µL neutrophil elastase substrate (S-1384; 25 mM stock conc.) was rapidly added and the residual enzyme activity measured from the initial rate of increase in the absorbance at 405 nm.

bovine trypsin = biological target: T4, bovine trypsin (Bos taurus, UniProt P00760); test: Trypsin chromogenic substrate hydrolysis assay; format: biochemical; details: pH 7.4
T4 construct: purchased Millipore-Sigma
Procedure: as §2, §3

[3] = biological target: T5, guinea pig transglutaminase (UniProt P08587); test: Guinea pig transglutaminase inhibition; format: biochemical; details: at concentrations as high as 500 µM
T5 sequence (P08587 1-690): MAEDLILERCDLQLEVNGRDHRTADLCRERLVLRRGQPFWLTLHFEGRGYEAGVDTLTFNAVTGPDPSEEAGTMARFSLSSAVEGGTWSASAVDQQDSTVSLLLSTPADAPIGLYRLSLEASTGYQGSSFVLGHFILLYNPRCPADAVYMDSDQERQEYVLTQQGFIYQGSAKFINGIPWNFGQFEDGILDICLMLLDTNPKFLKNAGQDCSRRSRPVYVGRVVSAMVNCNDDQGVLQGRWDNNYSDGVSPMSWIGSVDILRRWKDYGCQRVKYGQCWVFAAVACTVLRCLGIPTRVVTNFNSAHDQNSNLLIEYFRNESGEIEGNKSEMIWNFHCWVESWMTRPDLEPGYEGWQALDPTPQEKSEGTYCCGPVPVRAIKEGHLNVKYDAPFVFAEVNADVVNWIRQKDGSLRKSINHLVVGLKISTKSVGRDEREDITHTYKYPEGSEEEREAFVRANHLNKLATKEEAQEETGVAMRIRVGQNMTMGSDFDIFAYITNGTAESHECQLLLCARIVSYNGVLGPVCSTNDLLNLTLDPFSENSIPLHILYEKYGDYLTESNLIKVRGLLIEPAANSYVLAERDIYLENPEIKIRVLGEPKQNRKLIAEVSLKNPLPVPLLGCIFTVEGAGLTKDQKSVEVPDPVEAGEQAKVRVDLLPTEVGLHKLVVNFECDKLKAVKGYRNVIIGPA

human plasmin [4] = biological target: T2, human plasmin; test: Michaelis-Menten kinetics of Spectrozyme PL hydrolysis by plasmin; format: biochemical; details: for VMAX of Spectrozyme PL hydrolysis: pH 7.4, 37 °C
Procedure: The initial rate of Spectrozyme FXa hydrolysis by human FXa (87 nM) or that of Spectrozyme PL hydrolysis by human plasmin (120 nM) was monitored from the linear increase in absorbance at 405 nm corresponding to less than 10% consumption of the substrate. […] The data were fitted by Michaelis-Menten Equation (2) to determine KM (substrate affinity to the enzyme) and VMAX (maximum velocity of enzyme reaction). (2) Vi=VMAX×[S]/KM+[S]

[5] = set-up: method as in PMID 3491164, PMID 3680992, PMID 1984463; details: patients; read-out: means of plasma CMAX; cited from earlier work

T4 sequence (P00760 24-246): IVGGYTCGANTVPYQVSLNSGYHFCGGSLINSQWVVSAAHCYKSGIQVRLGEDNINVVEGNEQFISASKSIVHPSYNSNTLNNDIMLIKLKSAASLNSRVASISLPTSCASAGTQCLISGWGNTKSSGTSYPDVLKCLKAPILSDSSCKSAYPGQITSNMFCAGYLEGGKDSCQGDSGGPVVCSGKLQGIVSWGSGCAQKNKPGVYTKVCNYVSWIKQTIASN
T2 sequence (P00747 581-810 limits assumed): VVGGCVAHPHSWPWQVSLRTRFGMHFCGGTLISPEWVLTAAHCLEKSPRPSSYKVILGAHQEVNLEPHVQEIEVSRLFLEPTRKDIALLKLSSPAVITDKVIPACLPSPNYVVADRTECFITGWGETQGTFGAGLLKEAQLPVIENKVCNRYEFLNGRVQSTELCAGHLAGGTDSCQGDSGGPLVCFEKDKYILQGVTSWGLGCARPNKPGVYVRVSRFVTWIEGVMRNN
T2 sequence (P00747 97-580 partner limits assumed): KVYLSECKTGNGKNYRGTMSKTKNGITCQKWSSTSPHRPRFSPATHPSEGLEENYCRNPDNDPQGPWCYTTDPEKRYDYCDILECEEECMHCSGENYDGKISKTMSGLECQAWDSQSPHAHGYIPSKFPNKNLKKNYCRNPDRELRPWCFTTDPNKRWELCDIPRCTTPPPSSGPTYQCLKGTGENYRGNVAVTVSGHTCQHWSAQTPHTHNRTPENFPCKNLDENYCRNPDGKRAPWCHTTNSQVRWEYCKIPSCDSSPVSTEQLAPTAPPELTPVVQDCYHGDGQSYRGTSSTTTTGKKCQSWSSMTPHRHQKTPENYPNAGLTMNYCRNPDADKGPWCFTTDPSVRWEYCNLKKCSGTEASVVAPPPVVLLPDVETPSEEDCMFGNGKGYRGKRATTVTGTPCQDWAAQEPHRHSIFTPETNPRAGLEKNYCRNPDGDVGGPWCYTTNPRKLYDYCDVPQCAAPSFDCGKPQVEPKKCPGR

N=C(N)c1ccc(OCCCCCOc2ccc(C(=N)N)cc2)cc1 [pentamidine isethionate, 4,4′-(pentane-1,5-diylbis(oxy))-dibenzimidamide]
TTEC2×, concentration to double clotting time (normal human plasma; TT assay, normal human plasma): 158.17 ± 30.87 µm | concentration to double the TT (normal human plasma): 158.17 µM and 158.17 ± 30.87 µM | concentration to double the TT (normal human plasma; listed as pentamidine): > 150 µM | IC50 (human α-thrombin; Thrombin, pH 7.4, 37 °C): > 100 µM | inhibition at 100 µM (human α-thrombin; thrombin, at 100 µM (highest concentration tested)): < 40% | HS (human plasmin [1]): 1.1 ± 0.1 | IC50 (human plasmin [1]): ~8.4 µM and 8.4 µM | ∆Y (efficacy) (human plasmin [1]): 98.0 ± 3.3% | ∆Y (efficacy) (human plasmin [1]; listed as pentamidine): ~ 100% | IC50 [2]: > 100 µM | HS (bovine trypsin): 1.0 ± 0.2 | IC50 (bovine trypsin): 4.9 ± 0.8 µM | ∆Y (efficacy) (bovine trypsin): 116.8 ± 7.4% | inhibition of guinea pig transglutaminase [3]: did not inhibit | VMAX of Spectrozyme PL hydrolysis (human plasmin [4]; 10 µM pentamidine isethionate): 78.7 ± 2.0 mAU/min | VMAX of Spectrozyme PL hydrolysis (human plasmin [4]; 20 µM pentamidine isethionate): 88.4 ± 1.0 mAU/min | VMAX of Spectrozyme PL hydrolysis (human plasmin [4]; 50 µM pentamidine isethionate): 92.9 ± 3.2 mAU/min | VMAX of Spectrozyme PL hydrolysis (human plasmin [4]; 100 µM pentamidine isethionate): 90.9 ± 6.5 mAU/min | type of inhibition of plasmin (human plasmin [4]; Michaelis-Menten kinetics): competitively inhibits | increase of KM for Spectrozyme PL (human plasmin [4]; inhibitor 100 μM vs absence): ~ 13.9 fold | Cmax [5]: ≤ 1000 nM
